Reference: US20260191991A1, “COMPSTATIN ANALOGS FOR VECTOR-BASED THERAPY” (AMYNDAS PHARMACEUTICALS US LLC, priority 2022, published 2026)
In brackets after ≈: the same amount, converted by molar mass. Where a SMILES comes first, the peptide text is derived from it. Bridges are numbered along the chain shown (N, C = ends). Where no end group is shown, it is not given here.

How the values were obtained:
[1] = Solubility in DPBS (Table 1); type: physicochemical; details: Dulbecco's phosphate buffered saline; measured as OD (280 nm) at saturation
[2] = target: T1, C3 (Homo sapiens, UniProt P01024); assay: KD (Table 1); type: binding
[3] = test system: laser-induced choroidal neovascularization (CNV); assay: Laser-induced choroidal neovascularization, nonhuman primate model of wet-type AMD, fluorescein angiography lesion grading; type: in vivo, macaque; details: for CNV lesion size, % of baseline: third Cp50-treated animal (K-2434)
Procedure: The effects of the compstatin analogue Cp50 (described above) were compared vs. vehicle, in a nonhuman primate model of wet-type age-related macular degeneration (AMD). In this model, laser-induced choroidal neovascularization (CNV) was performed in the eyes of macaques.
Laser-induced CNV was performed in both eyes of the macaques, as described below. Two weeks (Day 14) after laser photocoagulation, laser lesions were graded (Grade 1-4) via fluorescein angiograms (FA).
Under ketamine (15 mg/kg, i.m.) and xylazine (2 mg/kg, i.m), on Day 15, the eyes were intravitreally (IVT) injected with either vehicle, or compstatin Cp50. FA measurements were performed on weeks 4, 6, 8 10 and 12 (total of five times), following CNV.
Briefly, under light ketamine (10 mg/kg, i.m.) anesthesia, the pupils were dilated with tropicamide/phenylephrine (Mydrin-P® ophthalmic solution; Santen Pharmaceutical Co., Osaka, Japan). For the laser treatment, the macaques were anesthetized with a combination of ketamine (15 mg/kg, i.m.; Daiichi Sankyo Propharma Co., Tokyo, Japan) and xylazine (2 mg/kg, i.m.; Bayer Yakuhin, Osaka, Japan). A green laser (900 mW output; Green Scan Laser Photocoagulator, GYC-500, Nidek, Co., Gamagori, Japan) was applied to eight spots (about 75 μm, 0.1 s duration) around the macula in a grid pattern. The extent of CNV lesion was assessed using fluorescence angiography (FA) at predetermined time points.
On the day of lesion grading, under light ketamine (10 mg/kg, i.m.) anesthesia, the pupils were dilated with tropicamide/phenylephrine (Mydrin-P® ophthalmic solution), and then the macaques were anesthetized with a combination of ketamine (15 mg/kg, i.m.) and xylazine (2 mg/kg, i.m).
Fluorescence Angiography (FA) was used to check the extent of CNV in the back of the eye. Ten percent sodium fluorescein (Fluorescite®; 10 mg/kg, i.v.; Novartis, Tokyo, Japan) was injected and a fundus camera took pictures of the back of the eye at about 1, 3, and 5 min after i.v. injection.
Following randomization, under ketamine (15 mg/kg, i.m.) and xylazine (2 mg/kg, i.m), on Day 15, the eyes were intravitreally (IVT) injected with 50 μl of either vehicle, or Cp50. Before IVT injection, eyes were treated twice daily for three days with levofloxacin hydrate (0.5%; Cravit®, Santen Pharmaceutical Co.).
Under anesthesia, a solution of tropicamide/phenylephrine HCl (Mydrin®-P), levofloxacin hydrate (0.5%; Santen Pharmaceutical Co.), and oxybuprocaine HCl (0.4%; Santen Pharmaceutical Co.) was instilled before dosing.

[4] = target: T1, C3; details: background statement; cited from earlier work
Target sequence in this assay (P01024 23-1663): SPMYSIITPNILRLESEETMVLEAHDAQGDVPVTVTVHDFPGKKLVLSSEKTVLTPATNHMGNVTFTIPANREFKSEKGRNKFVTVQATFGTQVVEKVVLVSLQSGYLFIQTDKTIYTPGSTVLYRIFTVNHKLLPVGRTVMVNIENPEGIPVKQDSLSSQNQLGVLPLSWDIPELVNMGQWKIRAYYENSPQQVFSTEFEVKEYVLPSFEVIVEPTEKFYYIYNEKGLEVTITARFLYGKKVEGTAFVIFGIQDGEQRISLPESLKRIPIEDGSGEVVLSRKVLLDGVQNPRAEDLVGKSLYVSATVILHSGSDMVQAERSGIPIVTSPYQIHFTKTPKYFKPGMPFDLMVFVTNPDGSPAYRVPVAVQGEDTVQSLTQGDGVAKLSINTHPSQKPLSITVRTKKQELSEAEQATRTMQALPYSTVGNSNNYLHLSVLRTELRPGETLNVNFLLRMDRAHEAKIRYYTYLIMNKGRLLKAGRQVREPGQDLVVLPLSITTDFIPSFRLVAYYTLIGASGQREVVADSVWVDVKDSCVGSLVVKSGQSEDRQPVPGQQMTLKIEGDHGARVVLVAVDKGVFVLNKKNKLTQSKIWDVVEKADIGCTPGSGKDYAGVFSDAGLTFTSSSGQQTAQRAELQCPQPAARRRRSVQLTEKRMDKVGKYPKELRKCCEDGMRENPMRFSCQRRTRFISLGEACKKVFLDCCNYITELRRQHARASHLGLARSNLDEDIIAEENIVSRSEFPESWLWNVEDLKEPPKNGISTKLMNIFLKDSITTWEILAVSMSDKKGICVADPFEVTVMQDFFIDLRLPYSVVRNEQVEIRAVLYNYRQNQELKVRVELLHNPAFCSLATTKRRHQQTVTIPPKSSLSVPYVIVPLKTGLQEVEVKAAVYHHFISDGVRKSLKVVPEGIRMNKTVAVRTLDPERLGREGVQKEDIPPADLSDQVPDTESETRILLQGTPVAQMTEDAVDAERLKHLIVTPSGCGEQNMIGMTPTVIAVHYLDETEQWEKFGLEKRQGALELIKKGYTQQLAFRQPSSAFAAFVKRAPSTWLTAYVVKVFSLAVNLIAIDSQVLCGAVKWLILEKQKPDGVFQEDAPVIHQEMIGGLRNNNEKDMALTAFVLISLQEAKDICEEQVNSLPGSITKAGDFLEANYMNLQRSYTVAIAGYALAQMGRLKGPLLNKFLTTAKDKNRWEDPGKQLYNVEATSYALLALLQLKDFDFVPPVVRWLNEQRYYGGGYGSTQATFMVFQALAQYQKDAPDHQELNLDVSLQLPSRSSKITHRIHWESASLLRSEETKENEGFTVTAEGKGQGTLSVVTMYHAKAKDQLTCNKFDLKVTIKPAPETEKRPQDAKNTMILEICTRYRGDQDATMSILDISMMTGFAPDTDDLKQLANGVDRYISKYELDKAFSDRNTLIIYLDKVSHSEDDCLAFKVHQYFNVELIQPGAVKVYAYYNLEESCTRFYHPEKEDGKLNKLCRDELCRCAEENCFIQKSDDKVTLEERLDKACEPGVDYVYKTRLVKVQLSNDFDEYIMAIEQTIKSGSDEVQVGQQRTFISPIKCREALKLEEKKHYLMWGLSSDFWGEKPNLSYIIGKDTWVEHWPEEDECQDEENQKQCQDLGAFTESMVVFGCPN

[5] = target: T2, C3 protein (UniProt P01024 23-1663, limits assumed); assay: method not stated (Table 1; target C3 implied)
T2 construct: also called complement component C3; plasma protein C3
T2 sequence (P01024 23-1663 limits assumed): as the sequence (P01024 23-1663) above

Work on `CC[C@H](C)[C@H](NC(=O)[C@@H]1CSSC[C@H](NC(=O)[C@@H](NC(=O)[C@@H](N)Cc2ccc(O)cc2)[C@@H](C)CC)C(=O)N[C@@H]([C@@H](C)CC)C(=O)N[C@@H](Cc2c[nH]c3ccccc23)C(=O)N[C@@H](CCC(N)=O)C(=O)N[C@@H](CC(=O)O)C(=O)N[C@@H](Cc2c[nH]c3ccccc23)C(=O)NCC(=O)N[C@@H](CCC(=O)O)C(=O)N[C@@H](Cc2c[nH]cn2)C(=O)N[C@@H](CCCNC(=N)N)C(=O)N1)C(=O)N[C@@H](CCCCN)C(=O)N[C@@H](CCCCN)C(=O)N[C@@H](CCCCN)C(=O)O` [Cp51] (HELM PEPTIDE1{Y.I.C.I.W.Q.D.W.G.E.H.R.C.I.K.K.K}$PEPTIDE1,PEPTIDE1,3:R3-13:R3$$$V2.0; N-terminus and C-terminus assumed) yielded a solubility [1] greater than 250 mg/mL.

For `CC[C@H](C)[C@H](NC(=O)[C@@H]1CSSC[C@H](NC(=O)[C@@H](NC(=O)[C@@H](N)Cc2ccc(O)cc2)[C@@H](C)CC)C(=O)N[C@@H]([C@@H](C)CC)C(=O)N[C@@H](Cc2c[nH]c3ccccc23)C(=O)N[C@@H](CCC(N)=O)C(=O)N[C@@H](CC(=O)O)C(=O)N[C@@H](Cc2c[nH]c3ccccc23)C(=O)NCC(=O)N[C@@H](C)C(=O)N[C@@H](Cc2c[nH]cn2)C(=O)N[C@@H](CCCNC(=N)N)C(=O)N1)C(=O)N[C@@H](CCCCN)C(=O)N[C@@H](CCCCN)C(=O)N[C@@H](CCCCN)C(=O)O` [Cp50] (HELM PEPTIDE1{Y.I.C.I.W.Q.D.W.G.A.H.R.C.I.K.K.K}$PEPTIDE1,PEPTIDE1,3:R3-13:R3$$$V2.0; N-terminus and C-terminus assumed), the solubility [1] was greater than 250 mg/mL, the Kd [2] was 0.5 nM and the “mean Grade 4 lesion compared to eyes treated with vehicle” value ([3]; Weeks 4, 6, 8 and 12, intravitreal injection on Day 15) was “reduced”. The “CNV lesion size, % of baseline” value ([3]; by week 6) was 50%, the “CNV lesion size, % of baseline” value ([3]; by week 12) was 25% and the CNV lesion size ([3]; two Cp50-treated eyes, as early as week 4 post laser-induced CNV) was “decline”. For the same molecule, the “reduction of Grade 4 lesion ratios” value ([3]; two Cp50-treated eyes, from week 6 onwards until week 12) was 100%.

In the case of `CC[C@H](C)[C@H](N)C(=O)N[C@H]1CSSC[C@@H](C(=O)N[C@H](C(N)=O)[C@@H](C)O)NC(=O)[C@H](CCCN=C(N)N)NC(=O)[C@H](Cc2cnc[nH]2)NC(=O)[C@H](Cc2cnc[nH]2)NC(=O)CNC(=O)[C@H](Cc2c[nH]c3ccccc23)NC(=O)[C@H](CC(=O)O)NC(=O)[C@H](CCC(N)=O)NC(=O)[C@H](C(C)C)NC(=O)[C@H](C(C)C)NC1=O` [Compstatin], the “binding affinity for C3” value [4] is listed as “micromolar”.

In the case of `CC[C@H](C)[C@H](NC(=O)[C@H](N)Cc1ccc(O)cc1)C(=O)N[C@H]1CSSC[C@@H](C(=O)N(C)[C@H](C(N)=O)[C@@H](C)CC)NC(=O)[C@H](CCCNC(=N)N)NC(=O)[C@H](Cc2c[nH]cn2)NC(=O)[C@H](C)NC(=O)CN(C)C(=O)[C@H](Cc2c[nH]c3ccccc23)NC(=O)[C@H](CC(=O)O)NC(=O)[C@H](CCC(N)=O)NC(=O)[C@H](Cc2cn(C)c3ccccc23)NC(=O)[C@H](C(C)C)NC1=O` [Cp40, dTyr-Ile-[Cys-Val-1MeTrp-Gln-Asp-Trp-Sar-Ala-His-Arg-Cys]-mIle, reference compound], the “Solubility DPBS” value [1] is reported as 0.8 mg/mL (≈ 0.447 mM).

In the case of YICIWQDWGEHRCIKKK (disulfide 3-13) [Cp51], the Kd [5] is reported as 1 nM.
